Read-outs that look alike come from different tables or passages of the source.
Legend:
[1] = biological target: oncogenic mutant K-Ras (mGFP-K-Ras G12V) (Homo sapiens, UniProt P01116, G12V); type: cell-based, canine; conditions: MDCK cells stably expressing mGFP-KRasG12V and mCherry-CAAX, 48 h; for IC50: read-out: IC50 (concentration needed for 50% PM mislocalisation)
SW620 cells = assay: resazurin cell viability assay, SW620; type: cell-based, human
SW620 Ad300 cells = assay: cells; type: cell-based, human
P-glycoprotein (P-gp) = P-glycoprotein (P-gp) (Homo sapiens, UniProt P08183); assay: calcein AM flow cytometry assay in P-gp over-expressing SW620 Ad300 cells; conditions: 20 μM
P-glycoprotein (P-gp), sequence (P08183 whole entry): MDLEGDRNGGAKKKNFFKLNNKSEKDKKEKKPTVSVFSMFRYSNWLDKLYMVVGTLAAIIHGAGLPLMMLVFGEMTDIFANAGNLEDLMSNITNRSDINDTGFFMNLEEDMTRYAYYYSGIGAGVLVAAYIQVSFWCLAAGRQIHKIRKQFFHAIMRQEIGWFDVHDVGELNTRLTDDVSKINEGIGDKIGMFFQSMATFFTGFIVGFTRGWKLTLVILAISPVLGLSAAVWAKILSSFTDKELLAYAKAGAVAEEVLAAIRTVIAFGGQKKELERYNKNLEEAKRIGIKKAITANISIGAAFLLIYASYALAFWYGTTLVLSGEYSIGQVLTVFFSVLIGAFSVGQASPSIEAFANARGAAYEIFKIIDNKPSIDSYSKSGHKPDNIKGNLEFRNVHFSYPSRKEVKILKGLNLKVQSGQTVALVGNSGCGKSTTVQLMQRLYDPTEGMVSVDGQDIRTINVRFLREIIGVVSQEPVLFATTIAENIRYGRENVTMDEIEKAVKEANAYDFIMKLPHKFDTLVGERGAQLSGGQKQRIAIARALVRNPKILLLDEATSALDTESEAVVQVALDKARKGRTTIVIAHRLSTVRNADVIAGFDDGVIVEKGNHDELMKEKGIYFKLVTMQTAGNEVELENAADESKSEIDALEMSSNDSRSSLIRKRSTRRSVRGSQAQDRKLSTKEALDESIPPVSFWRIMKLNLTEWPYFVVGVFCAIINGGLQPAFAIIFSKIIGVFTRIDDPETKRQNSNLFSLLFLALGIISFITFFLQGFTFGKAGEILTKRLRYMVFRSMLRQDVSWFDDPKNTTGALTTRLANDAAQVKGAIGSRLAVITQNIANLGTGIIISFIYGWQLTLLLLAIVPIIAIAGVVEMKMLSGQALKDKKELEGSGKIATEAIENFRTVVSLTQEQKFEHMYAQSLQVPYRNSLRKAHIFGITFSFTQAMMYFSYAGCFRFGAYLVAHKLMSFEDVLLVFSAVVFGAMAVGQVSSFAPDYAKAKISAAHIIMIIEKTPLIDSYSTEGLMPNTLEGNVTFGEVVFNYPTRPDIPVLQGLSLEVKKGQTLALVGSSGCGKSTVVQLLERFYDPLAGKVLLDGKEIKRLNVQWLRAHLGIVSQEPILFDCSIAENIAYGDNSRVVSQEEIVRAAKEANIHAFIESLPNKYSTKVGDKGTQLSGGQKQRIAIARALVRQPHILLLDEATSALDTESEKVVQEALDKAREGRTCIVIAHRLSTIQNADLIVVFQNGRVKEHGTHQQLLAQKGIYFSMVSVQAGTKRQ

[2] = read-out: SW620 IC50, colon cancer cell line SW620, resazurin
[3] = read-out: SW620 Ad300 IC50, P-gp over-expressing SW620 Ad300, resazurin

Row | Molecule | Emax (highest Manders coefficient, maximum extent of K-Ras PM mislocalisation) [1] | IC50 [1] [µM] | IC50 (SW620 cells; [2]) [µM] | FR (fold resistance, ratio IC50 SW620Ad300 / IC50 SW620) (SW620 Ad300 cells) | IC50 (SW620 Ad300 cells; [3]) [µM] | IC50 (SW620 cells; Homo sapiens, SW-620, read-out: SW620 IC50) [µM] | IC50 (SW620 Ad300 cells; Homo sapiens, SW620/AD300, read-out: SW620 Ad300 IC50) [µM] | FAR (fluorescence arbitrary ratio), calcein fluorescence intensity vs PBS (P-glycoprotein (P-gp)) | FR (fold resistance) with co-administration of verapamil (SW620 Ad300 cells; co-administration of P-gp inhibitor verapamil)
1 | CC[C@H]1/C=C/C=C/C[C@@H](C)[C@H](O)[C@@](C)(O)C(=O)[C@@H](C)[C@H](O)[C@@H](C)C(=O)[C@@H](C)[C@H](O)[C@@H](C)/C=C/C(=O)O[C@@H]2[C@H](C)[C@H](CC1)O[C@@]1(O[C@@H](C[C@@H](C)O)[C@@H](C)CC1=O)[C@H]2C [compound 2, oligomycin B] | 0.67 ± 0.02 | 0.00351 ± 0.00016 | 17 ± 0.6 | 0.76 | 12.9 ± 1.3 |  |  |  | 
2 | CC[C@@H]1C=CC=CC[C@H](C)[C@@H](O)[C@@H](C)C(=O)[C@H](C)[C@@H](O)[C@H](C)C(=O)[C@H](C)[C@@H](O)[C@H](C)C=CC(=O)O[C@H]2[C@@H](C)[C@@H](CC1)O[C@@]1(CC[C@@H](C)[C@@H](C[C@H](C)O)O1)[C@@H]2C [compound 3, oligomycin C] | 0.72 ± 0.03 |  |  | 1.1 |  | 19.8 ± 1.2 | 22.5 ± 3.8 |  | 
3 | CC[C@H]1/C=C/C=C/C[C@@H](C)[C@H](O)[C@@](C)(O)C(=O)[C@@H](C)[C@H](O)[C@@H](C)C(=O)[C@@H](C)[C@H](O)[C@@H](C)/C=C/C(=O)O[C@H]2C[C@@]3(CC[C@H](C)[C@H](C[C@@H](C)O)O3)O[C@@H](CC1)[C@H]2C [compound 4, oligomycin D] | 0.72 ± 0.01 | 0.00349 ± 8e-05 | 36 ± 2.3 | 0.35 | 12.9 ± 1 |  |  |  | 
4 | CC[C@H]1/C=C/C=C/C[C@@H](C)[C@H](O)[C@@](C)(O)C(=O)[C@@H](C)[C@H](O)[C@@H](C)C(=O)[C@@H](C)[C@H](O)[C@@H](C)/C=C/C(=O)O[C@@H]2[C@H](C)[C@H](CC1)O[C@@]1(O[C@@H](C[C@@H](C)O)[C@@H](C)CC1=O)[C@]2(C)O [compound 5, oligomycin E] | 0.73 ± 0.06 | 0.0049 ± 0.00064 | 7.1 ± 0.4 | 0.56 | 4 ± 0.8 |  |  | 48.2 | 
5 | CC[C@H]1/C=C/C=C/C[C@@H](C)[C@H](O)[C@@](C)(O)C(=O)[C@@H](C)[C@H](O)[C@@H](C)C(=O)[C@@H](C)[C@H](O)[C@@H](C)/C=C/C(=O)O[C@@H]2[C@H](C)[C@H](C[C@H]1O)O[C@]1(CC[C@H](C)[C@H](C[C@@H](C)O)O1)[C@H]2C [compound 6, 21-hydroxy-oligomycin A] | 0.76 ± 0.04 | 0.00482 ± 0.0007 | 14.4 ± 0.6 | 0.82 | 11.8 ± 3.1 |  |  |  | 
6 | CC[C@H]1/C=C/C=C/C[C@@H](C)[C@H](O)[C@H](C)C(=O)[C@@H](C)[C@H](O)[C@@H](C)C(=O)[C@@H](C)[C@H](O)[C@@H](C)/C=C/C(=O)O[C@@H]2[C@H](C)[C@H](C[C@H]1O)O[C@]1(CC[C@H](C)[C@H](C[C@@H](C)O)O1)[C@H]2C [compound 7, 21-hydroxy-oligomycin C] | 0.68 ± 0.01 | 0.0141 ± 0.00024 | 5.7 ± 0.9 | 0.54 | 3.1 ± 0.2 |  |  |  | 
7 | CC[C@H]1/C=C/C=C/C[C@@H](CO)[C@H](O)[C@@](C)(O)C(=O)[C@@H](C)[C@H](O)[C@@H](C)C(=O)[C@@H](C)[C@H](O)[C@@H](C)/C=C/C(=O)O[C@@H]2[C@H](C)[C@H](CC1)O[C@@]1(O[C@@H](C[C@@H](C)O)[C@@H](C)CC1=O)[C@H]2C [compound 8, 40-hydroxy-oligomycin B] | 0.73 ± 0.05 | 0.00591 ± 0.00162 | 13.6 ± 0.4 | 1.2 | 16.4 ± 1.5 |  |  |  | 
8 | COc1cccc2c1C(=O)c1c(O)c3c(c(O)c1C2=O)C[C@@](O)(C(=O)CO)C[C@@H]3O[C@H]1C[C@H](N)[C@H](O)[C@H](C)O1 [doxorubicin, reference compound] |  |  |  | 22 |  |  |  |  | 2.4
9 | oligomycin A [compound 1] | 0.75 ± 0.02 |  | 14.6 ± 2.5 | 0.27 | 4 ± 1.1 |  |  |  | 
